Laboratory results from patent publication US12433903B2 (priority 2021, dated 2025).
Entries after “also recorded” stand apart in the source; their conditions may differ. Like-named read-outs stand apart in the source and are kept apart here.

Assays:
[1] = PK and Tmax after intraperitoneal administration; assay type: in vivo; conditions: male C57BL/6 mice; for Tmax: mouse, in vivo
Text: The purpose of this study was to determine the pharmacokinetics and time of maximum plasma (Tmax) of the test articles (TA) CBD and Compound 3 following intraperitoneal (IP) administration to male C57BL/6 mice. This method of TA delivery, dose and mouse strain was to be used in a subsequent Pentylenetetrazol (PTZ) induced seizure model for the evaluation of the TA's for anti-epileptic activity.

PTZ-induced seizure = assay: PTZ-induced epilepsy (seizure) mouse model; assay type: in vivo; conditions: 100 mg/kg IP, CBD 60 minutes, Compound 3 30 minutes prior to PTZ 80 mg/kg; for Survival Effects: mortality rate compared to the vehicle/PTZ group: 30 minute observation
Text: Mouse models using GABAa receptor antagonist Pentylenetetrazol (PTZ) are well defined and used as a standard for the identification of potential anticonvulsants to treat generalized clonic seizures (Loscher et al., 1991 Epilepsy Res 8:171-189). The purpose of this study was to evaluate and compare CBD to test article Compound 3, on their therapeutic effects in a mouse model of PTZ-induced seizure. To match up test article plasma concentration time max (Tmax) with the PTZ induced seizures; test articles were administered at 60 minutes and 30 minutes prior to PTZ administration respectively. Vehicle used for treatment groups was 10% EtOH/10% Tween 80/80% Saline.
Mice were acclimated to the procedure room for at least 30 minutes. Pentylenetetrazole (PTZ; Sigma Aldrich) was formulated in water to a concentration of 16 mg/mL. Injections of PTZ were made at a volume of 5 mL/kg to produce a final dose of 80 mg/kg.
A 30-minute maximum latency to seizure was imposed. • Clinical behavior was scored using the following adapted Racine scale: • Score 0, no seizures observed • Score 1, Behavioral arrest (freezing, fixed gaze, staring), vibrissae twitching, mouth or facial clonus • Score 2, Pop or jump, straub tail, foot splay, head nodding • Score 3, Forelimb clonus, extended forelimbs, multiple pops or jerks • Score 4, Rearing and bilateral forelimb clonus, Running and running/bouncing • Score 5, All limb clonus, rearing and falling (stay fallen on rear side) • Score 6, Tonic hindlimb extensions, cardiac arrest
Behavior was scored by an observer blind to treatment. The highest score reached during every 5 minute period during the 30 minutes after PTZ was administered was recorded. Additionally, the percent tonic-clonic (number of animals progressing to the highest seizure score), and percent mortality was also calculated.

[2] = system: lipopolysaccharide (LPS)-induced inflammation; assay: Anti-inflammatory activity in a rat LPS model (serum cytokines); assay type: in vivo, Sprague Dawley rats; conditions: PO QD x 4, LPS 5 mg/kg IP, 2 h after LPS
Procedure: This assay was employed to determine the efficacies of CBG, compound 1, and compound 2 against lipopolysaccharide (LPS)-induced inflammation in Sprague Dawley rats.
Eight- to 10-week-old male rats were treated with CBG, Compound 1, and Compound 2, or a positive control (cyclosporin A) for four days prior to treatment with LPS. Twenty-eight (28) Sprague Dawley male rats, 8-10 weeks old, were used for this study. Animals were randomized by weight into one of 7 treatment groups as shown in Table 10 below and treated for 4 days with either vehicle control (Groups 1 and 2), Cyclosporin A (Neoral) (Group 3), CBG at 30 mg/kg (Group 4), Compound 1 at 31.5 mg/kg (Group 5), Compound 2 at 32.7 mg/kg (Group 6) or CBG at 30 mg/kg (intraperitoneal/IP; Group 7). Groups 1-6 were dosed for 4 days by oral gavage; group 7 was dosed for 4 days by IP injection. After the 4th injection, Groups 2-7 received a single IP injection of LPS at 5 mg/kg to induce inflammation. Body weight was recorded every other day starting on the day of or day prior to the first day of treatment. A terminal body weight was recorded. General health and clinical signs were recorded once daily. Blood was collected to isolate immune cells at 2 hours after the LPS injection. […]
Serum samples (N=82) were processed and shipped to Inotiv Boulder for analysis. […] The samples were analyzed for cytokine levels using the RECYTMAG-65K Luminex™ kit. […]

[3] = PK study after oral (PO) or intraperitoneal (IP) administration; assay type: in vivo, male Sprague Dawley rats; conditions: CBG 30 mg/kg PO or IP; Compound 1 31.5 mg/kg PO; Compound 2 32.7 mg/kg PO
Procedure: This study evaluated the pharmacokinetics of (E)-2-(3,7-dimethylocta-2,6-dien-1-yl)-3-methoxy-5-pentylphenol (1) and (E)-2-(3,7-dimethylocta-2,6-dien-1-yl)-1,3-dimethoxy-5-pentylbenzene (2) following oral (PO) or intraperitoneal (IP) administration to male Sprague Dawley rats.
For the oral formulation the test article was added to the appropriate amount of Maisine and stirred until uniform. Next Labrasol was added to the formulation and allowed to stir until uniform. Finally, water will be slowly added to the stirring formulation to achieve the final volume.
For the IP formulation the test article was added to the appropriate amount of ethanol and stirred until uniform. Next, the appropriate amount of tween-20 was added to the stirred formulation. Finally, the appropriate amount of saline was slowly added to the stirred formulation to achieve the final volume.
Animals were fasted the evening prior to dosing with food returned at 4 h postdose, and the animals weighed on the morning of dose administration.
IP doses were administered via injection to the intraperitoneal region. PO doses were delivered into the stomach via syringe and gavage tube.
Blood was collected from via direct jugular stick or from the tail vein. Blood samples were kept on ice until being centrifuged at 3200 RPM for 10 minutes at ˜5° C. within 1 h of collection. Plasma was split into 2 cryovials in approximately equal volumes (0.05 mLs) and stored at −20° C.±5° C. until shipment.

[4] = system: indomethacin induced intestinal injury; assay: Indomethacin-induced Crohn's disease in rats; assay type: in vivo
Procedure: The objective of this study was to determine the efficacy of Compound 1 and Compound 2 in a model of Crohn's disease (indomethacin induced intestinal injury) in rats.
The study design was identical for Compound 1 and Compound 2. On study day -3, rats were weighed and distributed into treatment groups based on body weight.
On study day 0, treatment was initiated and continue as indicated in the Study Design Tables below. Groups 2-6 received a subcutaneous injection of indomethacin (9 mg/kg, 1 ml/kg) in 5% sodium bicarbonate (Sterile Water). On study day 1, Groups 2-6 received a second subcutaneous injection of indomethacin (8 mg/kg, 1 ml/kg) in 5% sodium bicarbonate (Sterile Water). Live phase sample & data collection specifics are outlined below. On study day 4, animals will be euthanized, a section of the small intestine will be removed and weighed. Further necropsy sample and data collection is specified below. Overall efficacy of test articles will be based on body weight, small intestine weight (10 cm), small intestine gross score, and histopathology
At necropsy, the small intestines were evaluated visually and given a gross score according to the following criteria: 0=Normal. 0.5=Very Minimal thickening, multifocal in area at risk. 1=Minimal thickening, fairly diffuse in area at risk. 2=Mild to moderate small intestinal/mesenteric thickening throughout area at risk. 3=Moderate thickening with 1 or more definite adhesions that would be easy to separate. 4=Marked thickening with numerous hard to separate adhesions. 5=Severe intestinal lesion resulting in death.
Preserved 9-cm sections of small intestine were trimmed into 6 transverse sections collected at approximately equal intervals along the […] of the intestine, without bias toward lesion presence or absence. These trimmed sections were processed through graded alcohols and a clearing agent, infiltrated and embedded in paraffin, sectioned, and stained with hematoxylin and eosin (H&E).
Small intestine sections from all animals were examined microscopically by a board-certified veterinary pathologist, and observations were entered into a computer-assisted data retrieval system. Cross sections of small intestine were scored for inflammation and necrosis using the following criteria:
The area at risk for development of this lesion is generally approximately 30% of the total area of a cross section of small intestine where the mesentery attaches.
Inflammation is localized to the mesentery and intestinal area at risk for necrosis with slight extension on either side of it. […] In this case, inflammation is scored based on overall severity ranging from 0.5 (very minimal) to 5 (severe) without regard for the extent of necrosis. The mean score for necrosis and inflammation was calculated for each animal and these mean scores were then summed to arrive at a total score. Each section also has a measurement of total width of mucosal necrosis.

UGT1A4 = target: T1, UGT1A4 (Homo sapiens, UniProt P22310); assay: UGT reaction phenotyping, UGT1A4; assay type: in vitro ADME; conditions: glucuronide formed from trifluoperazine 1 μM, printed in the half-life column with *
T1 construct: purchased BD Biosciences
T1 sequence (P22310 29-534): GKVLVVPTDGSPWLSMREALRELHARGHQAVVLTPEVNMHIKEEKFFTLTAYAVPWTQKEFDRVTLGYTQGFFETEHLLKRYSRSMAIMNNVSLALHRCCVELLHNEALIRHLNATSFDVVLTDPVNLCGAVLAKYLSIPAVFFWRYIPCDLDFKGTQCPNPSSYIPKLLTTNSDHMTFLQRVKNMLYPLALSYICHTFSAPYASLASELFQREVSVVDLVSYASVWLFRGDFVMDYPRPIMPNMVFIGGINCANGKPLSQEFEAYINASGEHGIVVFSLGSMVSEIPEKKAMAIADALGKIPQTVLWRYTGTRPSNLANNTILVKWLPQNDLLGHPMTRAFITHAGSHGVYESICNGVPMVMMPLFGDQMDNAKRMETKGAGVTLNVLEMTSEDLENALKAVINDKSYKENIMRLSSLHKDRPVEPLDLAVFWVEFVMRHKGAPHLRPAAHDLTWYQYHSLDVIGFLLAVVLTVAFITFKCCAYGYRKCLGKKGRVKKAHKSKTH
Text: Experimental Summary: UGT Reaction Phenotyping (7 Isoforms).

For `C=C(C)[C@@H]1CCC(C)=C[C@H]1c1c(O)cc(CCCCC)cc1O` [CBD, cannabidiol], the Tmax ([1]; 100 mg/kg, IP) was 60 min, the “Latency to Clonic Seizure Event compared to PTZ alone” value (PTZ-induced seizure) was “did not yield a significantly different latency” and the “Latency to First Seizure Event compared to PTZ alone” value (PTZ-induced seizure) was “did not result in a difference in latency to first seizure”. For the same compound, the “Latency to Tonic Seizure Event compared to PTZ alone” value (PTZ-induced seizure) was “did not yield a significantly different latency”, the “Percent of animals reaching Tonic-clonic Stage 6 compared to PTZ alone” value (PTZ-induced seizure) was “did not yield a significantly difference in proportion; also recorded: did not yield a significant difference in proportion” and the “Racine scores over 5 minute intervals for 30 minutes compared to PTZ alone” value (PTZ-induced seizure) was “did not yield a significant change in clinical score”. The “Survival Effects: mortality rate compared to the vehicle/PTZ group” value (PTZ-induced seizure) was “did not yield a significantly reduced mortality rate”.
For `CCCCCc1cc(OC)c(C/C=C(\C)CCC=C(C)C)c(OC)c1` [Compound 2, (E)-2-(3,7-dimethylocta-2,6-dien-1-yl)-1,3-dimethoxy-5-pentylbenzene], the “reduction of IL-1B and IFNy, performance relative to CBG” value [2] was “equal to or better than CBG”, the “glucuronidation / glucuronide formation in plasma (in words)” value [3] was “completely blocked glucuronide formation” and the “small intestine gross score compared to vehicle” value ([4]; Group 4 (Compound 1: 50 mg/kg PO)) was “trend in lower small intestine gross score”. The “reduction of necrosis width, of vehicle” value ([4]; Group 5) was 99%, the “histopathology scores vs vehicle and dexamethasone” value ([4]; Group 5 & 6) was “significantly lower” and the “necrosis width vs vehicle and dexamethasone” value ([4]; Group 5 & 6) was “significantly lower”. For the same compound, the “reduction of necrosis width, of vehicle” value ([4]; Group 6) was 96%, the “Histopathology scores vs vehicle (Group 2)” value ([4]; Groups 4-6) was “lower than the vehicle” and the “necrosis width vs vehicle (Group 2)” value ([4]; Groups 4-6) was “lower than the vehicle”. The “small intestine gross score compared to vehicle” value ([4]; Groups 5-6 (Compound 1: 200 and 800 mg/kg PO)) was “significant reductions in gross score”, the “small intestine weight compared to vehicle” value ([4]; all three treatment groups (Groups 4-6), PO days 0-3) was “significantly lower” and the “body weight change from Study Day -3 (preventing weight loss)” value ([4]; all treatment groups (Groups 4-6), PO days 0-3, in comparison to dexamethasone (Compound 2: and vehicle)) was “all trended towards or had significant differences in preventing weight loss”.
In the case of `C=C(C)[C@@H]1CCC(C)=C[C@H]1c1c(O)cc(CCCCC)cc1OC` [Compound 3, (1′R,2′R)-6-methoxy-5′-methyl-4-pentyl-2′-(prop-1-en-2-yl)-1′,2′,3′,4′-tetrahydro-[1,1′-biphenyl]-2-ol], the “reduction of IL-1B and IFNy, performance relative to CBG” value [2] is reported as “equal to or better than CBG”, the “Cmax, fold greater than CBD” value ([1]; IP) is reported as 8 fold and the “plasma PK Area Under the Curve (AUC), fold greater than CBD” value ([1]; IP) is reported as “over 4 fold”. For the same compound, the Tmax ([1]; plasma, 100 mg/kg IP, read-out: TMax (converted)) was 30 min, the “Latency to Clonic Seizure Event compared to PTZ alone” value (PTZ-induced seizure) was “did not yield a significantly different latency; also recorded: strong trend toward longer latency” and the “Latency to First Seizure Event compared to PTZ alone” value (PTZ-induced seizure) was “trended towards a longer latency”. The “Latency to Tonic Seizure Event compared to PTZ alone” value (PTZ-induced seizure) was “significantly longer latency”, the “Percent of animals reaching Tonic-clonic Stage 6 compared to PTZ alone” value (PTZ-induced seizure) was “significantly lower proportion” and the “Racine scores over 5 minute intervals for 30 minutes compared to PTZ alone” value (PTZ-induced seizure) was “significant improvement in Racine scores”. For the same compound, the “Survival Effects: mortality rate compared to the vehicle/PTZ group” value (PTZ-induced seizure) was “significantly reduced mortality rate”.
For `C[N+]1([C@@H]2O[C@H](C(=O)[O-])[C@@H](O)[C@H](O)[C@H]2O)CCN(CCCN2c3ccccc3Sc3ccc(C(F)(F)F)cc32)CC1` [Trifluoperazine Glucuronide], the “average peak area ratio at 60 min/average peak area ratio at 0 min” value (UGT1A4) was “*6.38”.
